Experiments:
Type in all cases: toxicity, cell-based
[1] = tested on: U2OS; assay: Incucyte cell viability with U2OS; conditions: human, 10 µM, compound concentration 10 uM
[2] = tested on: HEK-293T; assay: Incucyte cell viability with HEK293T; conditions: human, 10 µM, compound concentration 10 uM
[3] = tested on: Fibroblast; assay: Incucyte cell viability with human fibroblast; conditions: 10 µM, compound concentration 10 uM
[4] = 0 h, replicate number 1, timepoint 0 hours
[5] = 0 h, replicate number 2, timepoint 0 hours
[6] = 6 h, replicate number 1, timepoint 6 hours
[7] = 12 h, replicate number 1, timepoint 12 hours
[8] = 18 h, replicate number 1, timepoint 18 hours
[9] = 18 h, replicate number 2, timepoint 18 hours
[10] = 24 h, replicate number 1, timepoint 24 hours
[11] = 6 h, replicate number 2, timepoint 6 hours
[12] = 12 h, replicate number 2, timepoint 12 hours
[13] = 24 h, replicate number 2, timepoint 24 hours
Also: filed as whole numbers so only -1 and 0 and 1 occur.

O=C(c1ccc(F)cc1)N1CC(COc2ccc(Br)cc2)(C(=O)O)C1 [PF-04475866]
Growth Rate [1, 4]: 1
Growth Rate [1, 5]: 0
Growth Rate [1, 6]: 1
Growth Rate [1, 7]: 1
Growth Rate [1, 8]: 0
Growth Rate [1, 9]: 1
Growth Rate [1, 10]: 1
Growth Rate [2, 4]: 0
Growth Rate [2, 6]: 1
Growth Rate [2, 11]: 0
Growth Rate [2, 7]: 1
Growth Rate [2, 12]: 0
Growth Rate [2, 8]: 0
Growth Rate [2, 10]: 1
Growth Rate [2, 13]: 0
Growth Rate [3, 4]: 0
Growth Rate [3, 9]: 1
Growth Rate [3, 10]: 1

CN(C)S(=O)(=O)c1ccc(NC(=S)N2CCC(C(O)(c3ccccc3)c3ccccc3)CC2)cc1
Growth Rate [1, 5]: 0
Growth Rate [1, 6]: 1
Growth Rate [1, 7]: 0
Growth Rate [1, 8]: 1
Growth Rate [1, 10]: 0
Growth Rate [1, 13]: 1
Growth Rate [2, 5]: 0
Growth Rate [2, 6]: 0
Growth Rate [2, 7]: 0
Growth Rate [2, 8]: 0
Growth Rate [2, 10]: 0
Growth Rate [3, 4]: 0
Growth Rate [3, 6]: 0
Growth Rate [3, 7]: 0
Growth Rate [3, 8]: 0
Growth Rate [3, 9]: 1
Growth Rate [3, 10]: 0
Growth Rate [3, 13]: 1

CC(=O)OCC(=O)[C@@]1(O)CC[C@H]2[C@@H]3CCC4=CC(=O)CC[C@]4(C)[C@@]3(F)[C@@H](O)C[C@@]21C [FLUDROCORTISONE ACETATE]
Growth Rate [1, 4]: 0
Growth Rate [1, 5]: 1
Growth Rate [1, 11]: 0
Growth Rate [1, 12]: 1
Growth Rate [1, 8]: 1
Growth Rate [1, 10]: 1
Growth Rate [2, 4]: 0
Growth Rate [2, 6]: 1
Growth Rate [2, 11]: 0
Growth Rate [2, 7]: 1
Growth Rate [2, 8]: 1
Growth Rate [2, 10]: 1
Growth Rate [2, 13]: 0
Growth Rate [3, 4]: 0
Growth Rate [3, 6]: 0
Growth Rate [3, 7]: 1
Growth Rate [3, 8]: 1
Growth Rate [3, 10]: 1

N#Cc1c(O)nc(SCc2cccc(F)c2F)nc1C1CC1
Growth Rate [1, 4]: 0
Growth Rate [1, 7]: 1
Growth Rate [1, 8]: 1
Growth Rate [1, 10]: 1
Growth Rate [2, 4]: 0
Growth Rate [2, 6]: 1
Growth Rate [2, 7]: 1
Growth Rate [2, 8]: 1
Growth Rate [2, 10]: 1
Growth Rate [2, 13]: 0
Growth Rate [3, 4]: 0
Growth Rate [3, 6]: 1
Growth Rate [3, 7]: 1
Growth Rate [3, 8]: 1
Growth Rate [3, 10]: 1

COc1ccc2cc(OCC3(C(=O)O)CN(C(=O)c4ccc(F)cc4)C3)ccc2c1 [PF-04418948]
Growth Rate [1, 4]: 0
Growth Rate [1, 11]: 0
Growth Rate [1, 7]: 1
Growth Rate [1, 12]: 0
Growth Rate [1, 8]: 1
Growth Rate [1, 9]: 0
Growth Rate [1, 10]: 1
Growth Rate [1, 13]: 0
Growth Rate [2, 4]: 0
Growth Rate [2, 6]: 1
Growth Rate [2, 11]: 0
Growth Rate [2, 7]: 1
Growth Rate [2, 8]: 1
Growth Rate [2, 9]: 0
Growth Rate [2, 10]: 1
Growth Rate [3, 4]: 0
Growth Rate [3, 6]: 0
Growth Rate [3, 11]: 1
Growth Rate [3, 7]: 0
Growth Rate [3, 8]: 0
Growth Rate [3, 9]: 1
Growth Rate [3, 10]: 0
Growth Rate [3, 13]: 1
